Experimental data published in US12509460B2 (Skyhawk Therapeutics, Inc., priority 2019, dated 2025).
Read-outs that look alike come from different tables or passages of the source.

Key:
[1] = tested on: MDR1-MDCK cell monolayers; settings: dog, MDCK-MDR1, 120 min, 5 μM, pH 7.4
[2] = tested on: SMN protein in spinal muscular atrophy (SMA) patient fibroblasts (GM03813, Coriell); assay: SMN protein assay, Mesoscale Discovery (MSD); type: cell-based, human; settings: for EC50: read-out: SMN2 protein EC50
How it was run: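 Absolute SMN levels were quantified by MSD against an SMN protein standard curve (1 μg/ml to 19.5 pg/ml) run on each plate. Samples were lysates of GM03813 patient fibroblasts (7000 cells/well) treated 48 hours with compound doses from 2.5 μM down to 0.6 nM.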

[3] = tested on: mHTT protein in GM04724 (CAG 70/20) Huntington's disease patient lymphoblast cells; assay: mHTT protein assay, 2B7-MW1 assay via Mesoscale Discovery (MSD); type: cell-based, human
How it was run: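 Signal from the 2B7-MW1 antibody pair on MSD, rising with polyQ length and smaller HTT fragments, measured mHTT after 48 h compound exposure (0.6 nM–10 μM) in GM04724 cells. A parallel replicate plate gave CellTiter Glo viability.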

[4] = Quantitative splicing assay (HTT), qPCR; type: cell-based, human; settings: Homo sapiens; GM04724 lymphoblasts, 24 h, qPCR; read-out: HTT Splicing: E49-50 EC50
How it was run: (§1)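 TaqMan qPCR on cell-lysate cDNA quantifies cryptic-exon inclusion from HTT intron 49. Lymphoblasts plated at 50,000 cells/well had received compound for 24 h, 0.15 nM-2.5 uM range, 0.1% DMSO.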

MDR1 [5] = assay: in vitro; settings: dog, MDCK-MDR1, pH 7.4
MDR1 (P-gp) [6] = assay: in vitro; settings: dog, MDCK-MDR1, pH 7.4
[7] = tested on: Huntingtin (HTT) transcripts, cryptic exon within intron 49, in GM04724 (CAG 70/20) Huntington's disease patient lymphoblasts; assay: Quantitative splicing assay (HTT), qPCR; type: cell-based, human; settings: 24 h, qPCR, read-out: HTT Splicing: E49-50 EC50
How it was run: as §1

[8] = tested on: MDR1-MDCK cell monolayers; assay: Blood-brain-barrier (BBB) penetration potential via MDCK-MDR1 permeability assay; settings: for MDCK-MDR1: % Recov A-B / MDCK-MDR1: Papp A-B: A-B direction; for MDCK-MDR1: % Recov B-A / MDCK-MDR1: Papp B-A: B-A direction; for MDCK-MDR1: Efflux: efflux ratio
MDR1 [9] = assay: as above; settings: dog, MDCK-MDR1, pH 7.4, MDCK-MDR1: Efflux, efflux ratio
MDR1 (P-gp) [10] = assay: as above; settings: dog
[11] = tested on: SMN FL and SMN Δ7 in spinal muscular atrophy (SMA) patient fibroblasts (GM03813, Coriell); assay: Quantitative splicing assay (SMN), qPCR; type: cell-based, human; settings: Homo sapiens, Fibroblast, SMA patient fibroblasts GM03813, 24 h, qPCR, read-out: SMN2 Splicing FL EC50
Experimental: Spinal muscular atrophy (SMA) patient fibroblasts (GM03813, Coriell) are plated in 96-well plates at 50,000 cells/well. […] Treated cells are lysed and cDNA synthesized using the Fast Advanced Cells-to-Ct kit (Thermofisher A35378) according to the manufacturer's instructions. 2 μL of each cDNA are used in qPCR reactions. […] Reactions are run in a Quant Studio 6 qPCR instrument with default settings.

[12] = SMA patient fibroblasts GM03813, 48 hours, MSD
[13] = GM04724 Huntington's disease patient lymphoblasts
[14] = SMA patient fibroblasts (GM03813), 48 hours
[15] = GM04724 (CAG 70/20) Huntington's disease patient lymphoblasts

| Structure (SMILES) | MDCK-MDR1: % Recov A-B [1] [%] | MDCK-MDR1: % Recov B-A [1] [%] | EC50 [3, 13] [nM] | efflux ratio at 120 min, 5 μM (MDR1 [5]) | Papp A→B at 120 min, 5 μM (MDR1 (P-gp) [6]) [nm/s] | Papp B→A at 120 min, 5 μM (MDR1 (P-gp) [6]) [nm/s] | EC50 [2, 12] [nM] | other results |
| --- | --- | --- | --- | --- | --- | --- | --- | --- |
| CN(c1ccc(-c2cc(C#N)ccc2O)nn1)[C@H]1C[C@@H]2CC[C@@H](N2)[C@H]1F (single isomer, unassigned) [Compound 70B] | 95 | 100 | 101 to 500 | 15 | 38.4 | 581 |  | SMN2 protein EC50 [2, 12]: E (501 ≤ E ≤ 10.000); EC50 [4]: 10 to 501 nM |
| CN(c1ccc(-c2ccc(-c3cnn(C)c3)cc2O)nn1)C1CC2COCC(N2)C1F (single isomer, unassigned) [Compound 80B] |  |  | 16 to 50 |  |  |  | 101 to 500 | EC50 [7]: 51 to 100 nM; MDCK-MDR1: % Recov A-B [8]: 76%; MDCK-MDR1: Papp A-B [8]: 6.01 10^−6, cm/s; MDCK-MDR1: % Recov B-A [8]: 87%; MDCK-MDR1: Papp B-A [8]: 40.8 10^−6, cm/s; MDCK-MDR1: Efflux [8]: 7 |
| CN(c1ccc(-c2cc3ccn(C)c(=O)c3cc2O)nn1)[C@H]1C[C@@H]2CC[C@H]([C@H]1F)N2C (single isomer, unassigned) [Compound 97B] | 85 | 83 | 101 to 500 | 27 | 19.6 | 531 | 101 to 500 | EC50 [4]: 101 to 500 nM |
| CN(c1ccc(-c2ccc(-c3cn[nH]c3)cc2O)nn1)C1CC2COCC(N2)C1F (stereo not shown) [Compound 8A] |  |  | 0.01 to 15 |  |  |  | 101 to 500 | EC50 [7]: 16 to 50 nM; efflux ratio at 120 min, 5 μM (MDR1 [9]): 36; MDCK-MDR1: % Recov A-B [8]: 87%; MDCK-MDR1: % Recov B-A [8]: 93%; Papp A→B at 120 min, 5 μM (MDR1 (P-gp) [10]; MDCK-MDR1, pH 7.4, MDCK-MDR1: Papp A-B, A-B direction): 16.7 nm/s; Papp B→A at 120 min, 5 μM (MDR1 (P-gp) [10]; MDCK-MDR1, pH 7.4, MDCK-MDR1: Papp B-A, B-A direction): 593 nm/s |
| CN(c1ccc(-c2ccc(-c3cn[nH]c3)cc2O)nn1)C1CC2COCC(N2)C1F (stereo not shown) [Compound 8B] |  |  | 0.01 to 15 |  |  |  | 16 to 50 | EC50 [7]: 0.01 to 15 nM; EC50 ([11]; 24 h): 16 to 50 nM; MDCK-MDR1: % Recov A-B [8]: 84%; MDCK-MDR1: Papp A-B [8]: 2.04 10^−6, cm/s; MDCK-MDR1: % Recov B-A [8]: 98%; MDCK-MDR1: Papp B-A [8]: 39.1 10^−6, cm/s; MDCK-MDR1: Efflux [8]: 19 |
| CNC(=O)c1cc(O)c(-c2ccc(N(C)[C@@H]3C[C@H]4CC[C@H](N4)[C@@H]3F)nn2)cc1F [Compound 47A, 2-fluoro-4-(6-(((1S,2S,3R,5R)-2-fluoro-8-azabicyclo[3.2.1]octan-3-yl)(methyl)amino)pyridazin-3-yl)-5-hydroxy-N-methylbenzamide] | 98 | 108 | 101 to 500 | 34 | 14.5 | 493 | 101 to 500 | EC50 [11]: 501 to 10000 nM |
| Cn1cnc2cc(-c3ccc(N(C4CC4)[C@@H]4C[C@H]5CC[C@H](N5)[C@@H]4F)nn3)c(O)cc2c1=O [Compound 56A, 7-(6-(cyclopropyl((1S,2S,3R,5R)-2-fluoro-8-azabicyclo[3.2.1]octan-3-yl)amino)pyridazin-3-yl)-6-hydroxy-3-methylquinazolin-4(3H)-one] | 83 | 83 | 101 to 500 | 56 | 9.2 | 514 | 101 to 500 | EC50 [4]: 10 to 501 nM |
| CN(c1ccc(-c2cc3c(=O)n(C)cnc3cc2O)nn1)[C@@H]1C[C@H]2CC[C@@H]([C@@H]1F)N2C [Compound 102A, 6-(6-(((1S,2S,3R,5R)-2-fluoro-8-methyl-8-azabicyclo[3.2.1]octan-3-yl)(methyl)amino)pyridazin-3-yl)-7-hydroxy-3-methylquinazolin-4(3H)-one] | 88 | 92 |  | 41 | 14.3 | 581 |  | EC50 [2, 14]: 101 to 500 nM; mHTT protein EC50 [3, 15]: E (501 ≤ E ≤ 10.000) |
| CN(c1ccc(-c2cc(F)c(-n3ccnn3)cc2O)nn1)[C@@H]1C[C@H]2CC[C@@H]([C@@H]1F)N2C [Compound 103A, 4-fluoro-2-(6-(((1S,2S,3R,5R)-2-fluoro-8-methyl-8-azabicyclo[3.2.1]octan-3-yl)(methyl)amino)pyridazin-3-yl)-5-(1H-1,2,3-triazol-1-yl)phenol] | 86 | 91 |  | 4 | 139 | 603 |  | SMN2 protein EC50 [2, 14]: E (501 ≤ E ≤ 10.000); mHTT protein EC50 [3, 15]: E (501 ≤ E ≤ 10.000) |
| Cc1nc2cc(-c3ccc(N(C)[C@@H]4C[C@H]5CC[C@@H]([C@@H]4F)N5C)nn3)c(O)cc2c(=O)n1C [Compound 105A, 7-(6-(((1S,2S,3R,5R)-2-fluoro-8-methyl-8-azabicyclo[3.2.1]octan-3-yl)(methyl)amino)pyridazin-3-yl)-6-hydroxy-2,3-dimethylquinazolin-4(3H)-one] | 105 | 115 |  | 99 | 5.8 | 569 |  | EC50 [2, 14]: 101 to 500 nM; EC50 [3, 15]: 101 to 500 nM |
| CN(c1ccc(-c2cc3oc(C(=O)N4CCC4)cc3cc2O)nn1)[C@@H]1C[C@H]2CC[C@@H]([C@@H]1F)N2C [Compound 107A, azetidin-1-yl(6-(6-(((1S,2S,3R,5R)-2-fluoro-8-methyl-8-azabicyclo[3.2.1]octan-3-yl)(methyl)amino)pyridazin-3-yl)-5-hydroxybenzofuran-2-yl)methanone] | 80 | 82 |  | 43 | 12.7 | 551 |  | SMN2 protein EC50 [2, 14]: E (501 ≤ E ≤ 10.000); mHTT protein EC50 [3, 15]: E (501 ≤ E ≤ 10.000) |
